Measurements taken from patent publication US20200345010A1, “FUNGICIDAL OXADIAZOLES” (FMC Corporation, priority 2019, published 2020).
Marks after values point to notes of the source that are not given here.

Tests used:
[1] = test system: Phakopsora pachyrhizi; experiment: Test A: Asian soybean rust control on soybean seedlings; type: in vivo; conditions: soybean seedlings sprayed the day before inoculation, 100 = 100% disease control, 0 = none
Excerpt: (§1) General protocol for preparing test suspensions for Tests A-C: the test compounds were first dissolved in acetone in an amount equal to 3% of the final volume and then suspended at the desired concentration (in ppm) in acetone and purified water (50/50 mix by volume) containing 250 ppm of the surfactant PEG400 (polyhydric alcohol esters). The resulting test suspensions were then used in Tests A-C.
(§2) The test solution was sprayed to the point of run-off on soybean seedlings. The following day the seedlings were inoculated with a spore suspension of Phakopsora pachyrhizi (the causal agent of Asian soybean rust) and incubated in a saturated atmosphere at 22° C. for 24 h, and then moved to a growth chamber at 22° C. for 8 days, after which time visual disease ratings were made.
(§3) A rating of 100 indicates 100% disease control and a rating of 0 indicates no disease control (relative to the controls). A dash (-) indicates the compound was not tested.

[2] = test system: Puccinia recondita f. sp. tritici; experiment: Test C: wheat leaf rust control on wheat seedlings; type: in vivo; conditions: wheat seedlings sprayed the day before inoculation, 100 = 100% disease control, 0 = none
Excerpt: as §1
as §2, with “wheat” for “soybean”, “Puccinia recondita f. sp. tritici” for “Phakopsora pachyrhizi”, “wheat leaf” for “Asian soybean”, “20°” for “22°”, “7” for “8”, “time” for “time visual”
as §3

[3] = test system: Zymoseptoria tritici; experiment: Test B: wheat leaf blotch control on wheat seedlings; type: in vivo; conditions: 250 ppm test suspension (asterisk); wheat seedlings sprayed the day before inoculation; 100 = 100% disease control, 0 = none
Excerpt: as §1
The test solution was sprayed to the point of run-off on wheat seedlings. The following day the seedlings were inoculated with a spore suspension of Zymoseptoria tritici (the causal agent of wheat leaf blotch) and incubated in a saturated atmosphere at 24° C. for 48 h, and then moved to a growth chamber at 20° C. for 17 days, after which time disease ratings were made.
as §3

[4] = 250 ppm test suspension (asterisk)

## CS(=O)(=NCc1ccc(-c2noc(C(F)(F)F)n2)cc1)c1ccccc1 (single isomer, unassigned) [Compound 8]
[1]; 10 ppm test suspension
  Test A disease control rating: 100%
[2]; 10 ppm test suspension
  Test C disease control rating: 68%

## CS(=O)(=NCc1ccc(-c2noc(C(F)(F)F)n2)cc1)c1ccccc1 (single isomer, unassigned) [Compound 23]
[1]; 50 ppm test suspension
  Test A disease control rating: 100%
[2]; 50 ppm test suspension
  Test C disease control rating: 85%

## CS(C)(=O)=Nc1ccc(-c2noc(C(F)(F)F)n2)cc1 [Compound 1]
[1]; 10 ppm test suspension
  Test A disease control rating: 73%
[2]; 10 ppm test suspension
  Test C disease control rating: 0%

## CS(=O)(Cc1ccccc1)=NCc1ccc(-c2noc(C(F)(F)F)n2)cc1 (centres unmarked) [Compound 2, N-[methyloxido(phenylmethyl)-λ^4-sulfanylidene]-4-[5-(trifluoromethyl)-1,2,4-oxadiazol-3-yl]benzenemethanamine]
[1]; 50 ppm test suspension
  Test A disease control rating: 100%
[3]
  Test B disease control rating: 93* %
[2]; 50 ppm test suspension
  Test C disease control rating: 100%

## CS(=O)(=NCc1ccc(-c2noc(C(F)(F)F)n2)cc1)c1ccc(Cl)cc1 (centres unmarked) [Compound 3]
[1]; 10 ppm test suspension
  Test A disease control rating: 94%
[2]; 10 ppm test suspension
  Test C disease control rating: 0%

## CS(=O)(=NCc1ccc(-c2noc(C(F)(F)F)n2)cc1)c1ccccn1 (centres unmarked) [Compound 4]
[1]; 10 ppm test suspension
  Test A disease control rating: 98%
[2]; 10 ppm test suspension
  Test C disease control rating: 74%

## CS(=O)(=Nc1ccc(-c2noc(C(F)(F)F)n2)cc1)c1ccccn1 (centres unmarked) [Compound 6]
[1]; 10 ppm test suspension
  Test A disease control rating: 99%
[2]; 10 ppm test suspension
  Test C disease control rating: 74%

## CS(=O)(=NCc1ccc(-c2noc(C(F)(F)F)n2)cc1)c1ccc(Br)cc1 (centres unmarked) [Compound 9]
[1]; 10 ppm test suspension
  Test A disease control rating: 92%
[2]; 10 ppm test suspension
  Test C disease control rating: 0%

## CS(=O)(=NCc1ccc(-c2noc(C(F)(F)F)n2)cc1)c1ccc(C#N)cc1 (centres unmarked) [Compound 10]
[1]; 10 ppm test suspension
  Test A disease control rating: 100%
[2]; 10 ppm test suspension
  Test C disease control rating: 55%

## CS(=O)(=NCc1ccc(-c2noc(C(F)(F)F)n2)cc1)c1ccc(C(F)(F)F)cc1 (centres unmarked) [Compound 11]
[1]; 10 ppm test suspension
  Test A disease control rating: 99%
[2]; 10 ppm test suspension
  Test C disease control rating: 0%

## O=S(=NCc1ccc(-c2noc(C(F)(F)F)n2)cc1)(c1ccccc1)C1CC1 (centres unmarked) [Compound 12]
[1]; 10 ppm test suspension
  Test A disease control rating: 97%
[3]
  Test B disease control rating: 53* %
[2]; [4]
  Test C disease control rating: 99* %

## CS(=O)(=Nc1ccc(-c2noc(C(F)(F)F)n2)cc1)c1cccs1 (centres unmarked) [Compound 13]
[1]; 10 ppm test suspension
  Test A disease control rating: 100%
[3]
  Test B disease control rating: 91* %
[2]; 10 ppm test suspension
  Test C disease control rating: 45%

## O=S1(=NCc2ccc(-c3noc(C(F)(F)F)n3)cc2)CCOCC1 [Compound 14]
[1]; 10 ppm test suspension
  Test A disease control rating: 99%
[2]; 10 ppm test suspension
  Test C disease control rating: 91%

## O=S(CCl)(=NCc1ccc(-c2noc(C(F)(F)F)n2)cc1)c1ccccc1 (centres unmarked) [Compound 15]
[1]; 10 ppm test suspension
  Test A disease control rating: 97%
[3]
  Test B disease control rating: 28* %
[2]; [4]
  Test C disease control rating: 99* %

## O=S1(=Nc2ccc(-c3noc(C(F)(F)F)n3)cc2)CCCC1 [Compound 16]
[1]; 10 ppm test suspension
  Test A disease control rating: 77%
[3]
  Test B disease control rating: 89* %
[2]; 10 ppm test suspension
  Test C disease control rating: 0%

## COC(=O)CCS(=O)(=NCc1ccc(-c2noc(C(F)(F)F)n2)cc1)c1ccccc1 (centres unmarked) [Compound 18]
[1]; 10 ppm test suspension
  Test A disease control rating: 84%
[2]; 10 ppm test suspension
  Test C disease control rating: 0%

## O=S(CCC(F)(F)F)(=NCc1ccc(-c2noc(C(F)(F)F)n2)cc1)c1ccccc1 (centres unmarked) [Compound 19]
[1]; 10 ppm test suspension
  Test A disease control rating: 85%
[2]; 10 ppm test suspension
  Test C disease control rating: 0%

## CS(=O)(=Nc1ccc(-c2noc(C(F)(F)F)n2)cc1)c1ccncc1 (centres unmarked) [Compound 20]
[1]; 10 ppm test suspension
  Test A disease control rating: 98%
[2]; 10 ppm test suspension
  Test C disease control rating: 89%

## CS(=O)(=NCc1ccc(-c2noc(C(F)(F)F)n2)cc1)c1ccccc1 (centres unmarked) [Compound 21]
[1]; 50 ppm test suspension
  Test A disease control rating: 100%
[3]
  Test B disease control rating: 70* %
[2]; [4]
  Test C disease control rating: 100* %

## CS(=O)(Cc1ccccc1)=Nc1ccc(-c2noc(C(F)(F)F)n2)cc1 (centres unmarked) [Compound 22]
[1]; 10 ppm test suspension
  Test A disease control rating: 54%
[2]; 10 ppm test suspension
  Test C disease control rating: 89%

## Cl.O=S1(=NCc2ccc(-c3noc(C(F)(F)F)n3)cc2)CCNCC1 [Compound 24]
[1]; 10 ppm test suspension
  Test A disease control rating: 99%
[3]
  Test B disease control rating: 18* %
other
  melting point: 219 to 223 °C
[2]; [4]
  Test C disease control rating: 99* %

## CS(=O)(=Nc1ccc(-c2noc(C(F)(F)F)n2)cc1)c1ccsc1 (centres unmarked) [Compound 25, N-(methyloxido-3-thienyl-λ^4-sulfanylidene)-4-[5-(trifluoromethyl)-1,2,4-oxadiazol-3-yl]benzenamine]
[1]; 10 ppm test suspension
  Test A disease control rating: 100%
[2]; 10 ppm test suspension
  Test C disease control rating: 86%

## CS(=O)(=NCc1ccc(-c2noc(C(F)(F)F)n2)cc1)c1cccs1 (centres unmarked) [Compound 27]
[1]; 10 ppm test suspension
  Test A disease control rating: 100%
[3]
  Test B disease control rating: 98* %
[2]; [4]
  Test C disease control rating: 100* %

## CS(=O)(=NCc1ccc(-c2noc(C(F)(F)F)n2)cc1)c1ccsc1 (centres unmarked) [Compound 28]
[1]; 10 ppm test suspension
  Test A disease control rating: 100%
[3]
  Test B disease control rating: 79* %
[2]; [4]
  Test C disease control rating: 100* %

## CS(=O)(=NCc1ccc(-c2noc(C(F)(F)F)n2)cc1)c1ccc2ccccc2c1 (centres unmarked) [Compound 29]
[1]; 10 ppm test suspension
  Test A disease control rating: 97%
[3]
  Test B disease control rating: 3* %
[2]; [4]
  Test C disease control rating: 99* %

## CS(=O)(=Nc1ccc(-c2noc(C(F)(F)F)n2)cc1)c1ccc2ccccc2c1 (centres unmarked) [Compound 30]
[1]; 10 ppm test suspension
  Test A disease control rating: 0%
[2]; 10 ppm test suspension
  Test C disease control rating: 74%

## CCCS(=O)(=NCc1ccc(-c2noc(C(F)(F)F)n2)cc1)c1ccccc1 (centres unmarked) [Compound 32]
[1]; 10 ppm test suspension
  Test A disease control rating: 99%
[2]; 10 ppm test suspension
  Test C disease control rating: 0%

## CS(C)(=O)=NCCc1ccc(-c2noc(C(F)(F)F)n2)cc1 [Compound 33, N-(dimethyloxido-λ^4-sulfanylidene)-4-[5-(trifluoromethyl)-1,2,4-oxadiazol-3-yl]benzeneethanamine]
[1]; 10 ppm test suspension
  Test A disease control rating: 99%
[2]; 10 ppm test suspension
  Test C disease control rating: 68%

## CCS(=O)(CC)=NCc1ccc(-c2noc(C(F)(F)F)n2)cc1 [Compound 34]
[1]; 10 ppm test suspension
  Test A disease control rating: 100%
[2]; 10 ppm test suspension
  Test C disease control rating: 41%

## CCCS(=O)(Cc1ccccc1)=Nc1ccc(-c2noc(C(F)(F)F)n2)cc1 (centres unmarked) [Compound 35]
[1]; 10 ppm test suspension
  Test A disease control rating: 0%
[2]; 10 ppm test suspension
  Test C disease control rating: 0%

## CCCS(=O)(Cc1ccccc1)=NCc1ccc(-c2noc(C(F)(F)F)n2)cc1 (centres unmarked) [Compound 36]
[1]; 10 ppm test suspension
  Test A disease control rating: 100%
[2]; 10 ppm test suspension
  Test C disease control rating: 0%

## CCCS(=O)(=NCc1ccc(-c2noc(C(F)(F)F)n2)cc1)c1c(F)c(F)c(F)c(F)c1F (centres unmarked) [Compound 37]
[1]; 50 ppm test suspension
  Test A disease control rating: 100%
[3]
  Test B disease control rating: 15* %
[2]; 50 ppm test suspension
  Test C disease control rating: 89%

## CS(=O)(=Nc1ccc(-c2noc(C(F)(F)F)n2)cc1)c1ccccc1 (centres unmarked) [Compound 39]
[1]; 10 ppm test suspension
  Test A disease control rating: 99%
[3]
  Test B disease control rating: 65* %
[2]; 10 ppm test suspension
  Test C disease control rating: 100%

## Cc1cc(C)c(S(C)(=O)=NCc2ccc(-c3noc(C(F)(F)F)n3)cc2)c(C)c1 (centres unmarked) [Compound 40]
[1]; 10 ppm test suspension
  Test A disease control rating: 91%
[3]
  Test B disease control rating: 36* %
[2]; 10 ppm test suspension
  Test C disease control rating: 0%

## O=S1(=NCc2ccc(-c3noc(C(F)(F)F)n3)cc2)CCCCC1 [Compound 43]
[1]; 50 ppm test suspension
  Test A disease control rating: 100%
[2]; 50 ppm test suspension
  Test C disease control rating: 99%

## CS(=O)(=NCc1ccc(-c2noc(C(F)(F)F)n2)cc1)c1ccccc1C#N (centres unmarked) [Compound 44]
[1]; 10 ppm test suspension
  Test A disease control rating: 98%
[3]
  Test B disease control rating: 0* %
[2]; 10 ppm test suspension
  Test C disease control rating: 100%

## CS(=O)(=NCc1ccc(-c2noc(C(F)(F)F)n2)cc1)c1cccc(C#N)c1 (centres unmarked) [Compound 45]
[1]; 10 ppm test suspension
  Test A disease control rating: 100%
[3]
  Test B disease control rating: 0* %
[2]; 10 ppm test suspension
  Test C disease control rating: 100%

## CCCS(C)(=O)=NCc1ccc(-c2noc(C(F)(F)F)n2)cc1 (centres unmarked) [Compound 46]
[1]; 10 ppm test suspension
  Test A disease control rating: 100%
[3]
  Test B disease control rating: 1* %
[2]; 10 ppm test suspension
  Test C disease control rating: 100%

## COc1ccc(S(C)(=O)=NCc2ccc(-c3noc(C(F)(F)F)n3)cc2)cc1 (centres unmarked) [Compound 47]
[1]; 10 ppm test suspension
  Test A disease control rating: 99%
[2]; 10 ppm test suspension
  Test C disease control rating: 32%

## COCCS(=O)(=NCc1ccc(-c2noc(C(F)(F)F)n2)cc1)c1ccccc1 (centres unmarked) [Compound 48, N-[(2-methoxyethyl)oxidophenyl-λ^4-sulfanylidene]-4-[5-(trifluoromethyl)-1,2,4-oxadiazol-3-yl]benzenemethanamine]
[1]; 10 ppm test suspension
  Test A disease control rating: 98%
[2]; 10 ppm test suspension
  Test C disease control rating: 45%

## COC(=O)c1ccc(S(C)(=O)=NCc2ccc(-c3noc(C(F)(F)F)n3)cc2)cc1 (centres unmarked) [Compound 49]
[1]; 10 ppm test suspension
  Test A disease control rating: 0%
[2]; 10 ppm test suspension
  Test C disease control rating: 0%

## CS(C)(=O)=NCc1ccc(-c2noc(C(F)(F)F)n2)cc1 [Compound 50]
[1]; 10 ppm test suspension
  Test A disease control rating: 99%
[2]; 50 ppm test suspension
  Test C disease control rating: 100** %

## CC(N=S(C)(C)=O)c1ccc(-c2noc(C(F)(F)F)n2)cc1 (centres unmarked) [Compound 52]
[1]; 10 ppm test suspension
  Test A disease control rating: 79%
[3]
  Test B disease control rating: 25* %
[2]; 50 ppm test suspension
  Test C disease control rating: 98** %
